This is an account of results in PubChem BioAssay (NCI).

Values joined by “and” are separate entries in the source; they are usually repeats but may differ in a detail not shown here. Equal values may be shown once.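 Results reflect a 48-hour exposure of cells in 96-well plates to compound at five concentrations. GI50 is the concentration that inhibits growth by half. TGI is the concentration that stops growth completely.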

Test in all cases: NCI-60 cell line screen, 48 h
Assay [1] concerns ACHN renal.
For assay [2], the system named is TK-10 renal.
Assay [3] has as its system SF-295 CNS.
Assay [4] concerns SF-268 CNS.
Assay [5] relates to 786-0 renal.
Assay [6] relates to NCI/ADR-RES ovarian.
Assay [7] deals with HOP-62 NSCLC.
Assay [8] deals with SK-MEL-28 melanoma.
The subject of assay [9] is LOX IMVI melanoma.
For assay [10], the system named is RPMI-8226 leukemia.

Consider `c1ccc2c(NCCCCCCCCNc3c4ccccc4nc4ccccc34)c3ccccc3nc2c1`, for which the TGI is 1.82 µM in [1]; 5.98 µM in assay [2]; 2.21 µM in assay [3]; 2.1 µM in assay [4]; 1.95 µM in assay [5]; 41.9 µM in assay [6]. For the same molecule, the TGI in assay [7] came out at 2.24 µM.

Take `CN(C)CCNC(=O)c1cccc(CO)c1[N+](=O)[O-]`: the TGI in [1], in assay [2], in assay [3], in [8], in [4] and in assay [5] was greater than 100 µM throughout. Besides, the TGI in assay [6] and in assay [7] was greater than 100 µM throughout.

Take `CC(O)C(NC(=O)C(CS)NC(=O)C(CO)NC(=O)C(CCCCN)NC(=O)C(Cc1c[nH]c2ccccc12)NC(=O)C(Cc1ccc(O)cc1)NC(=O)C(CS)NC(=O)C(N)Cc1ccccc1)C(N)=O` (stereo unspecified): the GI50 is 20.5 µM in [1] and 22.3 µM in assay [10]. For the same molecule, the TGI in assay [1] was > 25 µM and 44.5 µM; in assay [3], greater than 25 µM; in [8], 76.9 µM; in assay [4], greater than 25 µM; in [9], greater than 25 µM; in [5], > 25 µM and 79 µM. Also, the TGI was > 25 µM and 47.8 µM in [10]; greater than 25 µM in assay [6]; > 25 µM and 63.4 µM in assay [7].

As for `CN(C)CCNc1cccc2sc3ccc(O)cc3c(=O)c12`, the GI50 was 1.43 µM in [1]; 5.58 µM in assay [2]; 6.53 µM in assay [3]; 1.74 µM in assay [8]; 3.18 µM in assay [4]; 2.23 µM in assay [5]. The GI50 in [10] is 1.84 µM; in assay [6], 3.14 µM; in assay [7], 2.29 µM. Further, the TGI in [1] stood at 3.78 µM; in [2] it was 17.5 µM; in [3], 22.3 µM; in assay [8], 3.88 µM; in [4], 14.6 µM; in [5], 6.28 µM. For the same molecule, the TGI in assay [10] is 4.98 µM; in assay [6], 12.7 µM; in [7], 6.58 µM.

With `COc1cccc2c1C1=CC(=O)CCC1C(C)(C)O2` (stereo unspecified), the TGI in [1], in assay [2], in assay [3], in assay [8], in assay [4] and in assay [9] was greater than 100 µM each time. Moreover, the TGI was greater than 100 µM in assay [5], 50.4 µM in [10] and greater than 100 µM in assay [7].

`Cc1cc2occ(C)c(=O)c2c2c1OC(C)(C)S2`: the TGI in [1], in assay [2], in assay [3], in assay [8], in [4] and in [9] was greater than 100 µM throughout. Besides, the TGI in assay [5], in assay [10] and in assay [7] was greater than 100 µM throughout.

With `COC1C(=O)CCC2(CO2)C1(O)C1(C)OC1CCC(C)C` (stereo unspecified), the TGI in [1], in [3], in assay [8], in assay [4], in assay [5] and in [10] was greater than 100 µM each time. For the same molecule, the TGI in [6] and in [7] was greater than 100 µM each time.

`O=C(O)c1[nH]c(C(=O)O)c(CC(F)(F)C(F)(F)C(F)(F)F)c1CC(F)(F)C(F)(F)C(F)(F)F`: the TGI in assay [1], in assay [2], in assay [3], in assay [8], in [4] and in [9] was greater than 100 µM throughout. Moreover, the TGI in [5], in [10] and in assay [7] was greater than 100 µM in each case.

For `CCc1cccc(C)c1NC(=O)CC1Sc2ccccc2NC1=O` (stereo unspecified), the TGI in assay [1], in assay [2], in [3], in [8], in assay [4] and in assay [9] was greater than 100 µM in each case. Further, the TGI in [5] is greater than 100 µM; in assay [10] it was greater than 100 µM; in assay [7], 61.3 µM.

In the case of `O=c1oc2c3ccc4ccccc4c3n(Cc3nc4ccccc4[nH]3)c2c2ccccc12`, the TGI in [1], in assay [2], in assay [3], in assay [8], in assay [4] and in assay [9] was greater than 100 µM each time. Further, the results for the TGI in assay [5], in assay [10] and in [7] were greater than 47.9 µM, greater than 100 µM and 75.3 µM, respectively.

`CC(=O)O/C(C)=C\C(=O)O/N=C(\N)c1ccc(C)cc1`: the TGI in assay [1] is greater than 100 µM; in assay [2], greater than 100 µM; in assay [3], greater than 100 µM; in [8] it was 42.7 µM; in [4] it was 91.6 µM; in [9], greater than 100 µM. Further, the TGI in assay [5], in [10] and in [7] was greater than 100 µM in each case.
